Results published in ChEMBL document CHEMBL1649074, “Aurora kinase inhibitors based on the imidazo[1,2-a]pyrazine core: fluorine and deuterium incorporation improve oral absorption and exposure” (J Med Chem, 2011).

What was measured:
[1] = Clearance in Sprague-Dawley rat at 10 mg/kg, iv; assay type: ADME, organism-based; design: dose 10 mg/kg, route intravenous; conditions: in vivo
[2] = AUC (0 to 24 hrs) in Sprague-Dawley rat at 10 mg/kg, iv; assay type: ADME, organism-based; design: time < 24 hr, dose 10 mg/kg, route intravenous; conditions: plasma
[3] = AUC (0 to 24 hrs) in CD1 mouse at 3 mg/kg, iv; assay type: ADME, organism-based; design: time < 24 hr, dose 3 mg/kg, route intravenous; conditions: plasma
[4] = target: Casein kinase I isoform delta (Homo sapiens, UniProt P48730); assay: Inhibition of CSNK1D
[5] = target: Rho-associated protein kinase 2 (Homo sapiens, UniProt O75116); assay: Inhibition of ROCK2
Sequence of Rho-associated protein kinase 2 (O75116 whole entry): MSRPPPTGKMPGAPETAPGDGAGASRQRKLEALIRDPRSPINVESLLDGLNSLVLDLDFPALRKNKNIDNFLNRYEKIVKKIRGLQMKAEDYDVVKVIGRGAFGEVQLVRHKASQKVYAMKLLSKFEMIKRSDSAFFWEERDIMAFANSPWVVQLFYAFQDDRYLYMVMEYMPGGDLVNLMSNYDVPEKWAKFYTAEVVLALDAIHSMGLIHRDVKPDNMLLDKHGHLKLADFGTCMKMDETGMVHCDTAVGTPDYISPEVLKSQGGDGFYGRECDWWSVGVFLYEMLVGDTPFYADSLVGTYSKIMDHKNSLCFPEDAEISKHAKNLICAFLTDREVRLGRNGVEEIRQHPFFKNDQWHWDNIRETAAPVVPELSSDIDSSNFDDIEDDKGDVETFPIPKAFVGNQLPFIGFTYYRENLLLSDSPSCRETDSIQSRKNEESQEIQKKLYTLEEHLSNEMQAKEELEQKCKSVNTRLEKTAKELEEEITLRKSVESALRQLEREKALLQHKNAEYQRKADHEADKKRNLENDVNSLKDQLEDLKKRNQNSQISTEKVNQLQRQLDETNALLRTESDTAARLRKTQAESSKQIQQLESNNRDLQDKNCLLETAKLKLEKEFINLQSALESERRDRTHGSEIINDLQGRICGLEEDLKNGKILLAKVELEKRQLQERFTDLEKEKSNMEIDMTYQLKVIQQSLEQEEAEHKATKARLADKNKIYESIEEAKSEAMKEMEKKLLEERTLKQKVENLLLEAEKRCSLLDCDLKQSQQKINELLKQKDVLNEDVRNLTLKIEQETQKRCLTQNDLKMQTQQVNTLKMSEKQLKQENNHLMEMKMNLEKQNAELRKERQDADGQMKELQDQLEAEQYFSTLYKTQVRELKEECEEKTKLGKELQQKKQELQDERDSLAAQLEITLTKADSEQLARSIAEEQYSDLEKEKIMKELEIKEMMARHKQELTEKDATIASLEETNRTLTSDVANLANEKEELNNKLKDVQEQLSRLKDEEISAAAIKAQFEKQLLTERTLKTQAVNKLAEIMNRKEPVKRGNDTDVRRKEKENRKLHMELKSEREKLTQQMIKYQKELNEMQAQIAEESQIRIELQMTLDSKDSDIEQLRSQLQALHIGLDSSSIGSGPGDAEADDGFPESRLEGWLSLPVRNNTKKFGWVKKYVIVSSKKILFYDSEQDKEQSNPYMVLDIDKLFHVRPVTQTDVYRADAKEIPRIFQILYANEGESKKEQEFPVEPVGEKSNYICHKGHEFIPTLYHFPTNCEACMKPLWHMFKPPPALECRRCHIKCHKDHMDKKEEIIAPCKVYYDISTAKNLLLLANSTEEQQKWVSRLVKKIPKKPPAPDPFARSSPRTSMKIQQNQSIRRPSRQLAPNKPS

[6] = target: Insulin-like growth factor 1 receptor (Homo sapiens, UniProt P08069); assay: Inhibition of IGF1R
Sequence of Insulin-like growth factor 1 receptor (P08069 31-736 limits assumed): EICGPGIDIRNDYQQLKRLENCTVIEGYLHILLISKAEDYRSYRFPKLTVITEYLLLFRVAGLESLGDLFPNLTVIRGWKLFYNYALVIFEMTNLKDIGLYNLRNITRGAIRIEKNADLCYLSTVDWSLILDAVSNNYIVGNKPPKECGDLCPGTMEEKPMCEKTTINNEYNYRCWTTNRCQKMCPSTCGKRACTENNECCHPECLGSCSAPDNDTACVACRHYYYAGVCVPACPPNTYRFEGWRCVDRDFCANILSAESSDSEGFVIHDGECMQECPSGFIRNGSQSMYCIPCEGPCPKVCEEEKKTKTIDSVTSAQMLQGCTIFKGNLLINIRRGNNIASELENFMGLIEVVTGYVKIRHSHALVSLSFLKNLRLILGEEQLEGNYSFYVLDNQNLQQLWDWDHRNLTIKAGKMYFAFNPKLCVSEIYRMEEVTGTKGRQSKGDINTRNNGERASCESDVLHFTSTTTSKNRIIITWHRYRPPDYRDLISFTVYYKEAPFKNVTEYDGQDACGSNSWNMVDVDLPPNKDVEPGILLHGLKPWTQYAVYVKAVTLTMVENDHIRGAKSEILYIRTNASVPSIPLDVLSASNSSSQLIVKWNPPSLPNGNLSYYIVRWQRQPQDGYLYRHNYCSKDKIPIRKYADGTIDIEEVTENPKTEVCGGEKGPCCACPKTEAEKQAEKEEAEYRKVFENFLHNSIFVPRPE
Sequence of Insulin-like growth factor 1 receptor (P08069 741-1367 limits assumed): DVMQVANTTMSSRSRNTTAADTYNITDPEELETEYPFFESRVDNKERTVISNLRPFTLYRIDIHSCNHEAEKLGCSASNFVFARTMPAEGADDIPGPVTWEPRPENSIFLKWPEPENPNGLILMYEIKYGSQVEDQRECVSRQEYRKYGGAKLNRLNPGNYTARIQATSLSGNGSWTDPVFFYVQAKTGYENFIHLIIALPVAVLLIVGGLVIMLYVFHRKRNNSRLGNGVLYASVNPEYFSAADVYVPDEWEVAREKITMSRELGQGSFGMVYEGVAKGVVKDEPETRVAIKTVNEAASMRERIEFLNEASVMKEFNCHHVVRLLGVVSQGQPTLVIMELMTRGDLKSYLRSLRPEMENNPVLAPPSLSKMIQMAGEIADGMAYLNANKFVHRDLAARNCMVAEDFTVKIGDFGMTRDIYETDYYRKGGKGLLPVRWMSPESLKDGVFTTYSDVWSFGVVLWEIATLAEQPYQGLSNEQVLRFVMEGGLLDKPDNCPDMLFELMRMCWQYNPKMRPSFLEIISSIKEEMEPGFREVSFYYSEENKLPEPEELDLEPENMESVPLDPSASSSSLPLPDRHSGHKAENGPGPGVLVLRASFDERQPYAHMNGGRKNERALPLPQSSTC

[7] = target: Hepatocyte growth factor receptor (Homo sapiens, UniProt P08581); assay: Inhibition of MET
Sequence of Hepatocyte growth factor receptor (P08581 whole entry): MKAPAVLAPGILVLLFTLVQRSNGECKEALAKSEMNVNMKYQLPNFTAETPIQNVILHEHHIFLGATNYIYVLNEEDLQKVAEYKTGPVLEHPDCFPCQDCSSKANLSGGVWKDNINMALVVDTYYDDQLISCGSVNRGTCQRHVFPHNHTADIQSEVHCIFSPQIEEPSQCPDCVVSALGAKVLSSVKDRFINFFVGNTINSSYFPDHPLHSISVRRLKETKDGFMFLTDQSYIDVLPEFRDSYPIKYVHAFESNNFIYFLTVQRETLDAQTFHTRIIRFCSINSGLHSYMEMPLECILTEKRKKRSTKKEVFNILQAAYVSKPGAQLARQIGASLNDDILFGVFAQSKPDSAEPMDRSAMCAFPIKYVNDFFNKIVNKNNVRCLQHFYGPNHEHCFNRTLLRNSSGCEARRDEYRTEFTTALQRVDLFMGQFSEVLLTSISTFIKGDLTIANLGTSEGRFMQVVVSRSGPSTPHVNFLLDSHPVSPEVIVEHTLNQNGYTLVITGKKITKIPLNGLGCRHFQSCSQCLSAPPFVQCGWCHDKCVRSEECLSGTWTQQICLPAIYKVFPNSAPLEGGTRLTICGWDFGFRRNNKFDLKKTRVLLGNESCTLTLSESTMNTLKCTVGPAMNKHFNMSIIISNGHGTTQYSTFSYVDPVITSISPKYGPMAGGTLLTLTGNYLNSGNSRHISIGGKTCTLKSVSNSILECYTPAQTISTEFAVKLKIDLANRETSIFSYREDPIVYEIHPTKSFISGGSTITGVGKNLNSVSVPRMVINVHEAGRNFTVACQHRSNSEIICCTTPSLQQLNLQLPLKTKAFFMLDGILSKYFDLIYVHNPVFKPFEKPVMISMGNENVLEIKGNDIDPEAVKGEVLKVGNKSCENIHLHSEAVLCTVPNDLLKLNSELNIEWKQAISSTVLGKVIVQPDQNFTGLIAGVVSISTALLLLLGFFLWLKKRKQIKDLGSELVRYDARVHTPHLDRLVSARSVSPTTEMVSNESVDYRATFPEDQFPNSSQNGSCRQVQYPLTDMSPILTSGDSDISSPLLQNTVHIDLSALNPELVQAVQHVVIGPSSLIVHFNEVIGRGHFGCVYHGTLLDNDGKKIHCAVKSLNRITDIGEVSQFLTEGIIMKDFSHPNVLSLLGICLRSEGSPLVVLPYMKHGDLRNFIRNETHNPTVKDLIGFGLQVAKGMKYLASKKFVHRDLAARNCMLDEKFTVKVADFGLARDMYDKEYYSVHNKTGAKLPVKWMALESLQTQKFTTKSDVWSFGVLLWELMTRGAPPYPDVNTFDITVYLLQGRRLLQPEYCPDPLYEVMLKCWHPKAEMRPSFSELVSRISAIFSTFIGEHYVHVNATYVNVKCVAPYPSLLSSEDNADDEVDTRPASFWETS

[8] = Oral bioavailability in CD1 mouse at 50 mg/kg; assay type: ADME, organism-based; conditions: in vivo
[9] = target: Protein kinase C alpha type (Homo sapiens, UniProt P17252); assay: Inhibition of PKCA
[10] = Oral bioavailability in cynomolgus monkey at 30 mg/kg; assay type: ADME, organism-based, Macaca fascicularis; conditions: in vivo
[11] = AUC (0 to 24 hrs) in cynomolgus monkey at 30 mg/kg, po; assay type: ADME, organism-based, Macaca fascicularis; design: time < 24 hr, dose 30 mg/kg, route oral; conditions: plasma
[12] = target: T1, Inhibitor of nuclear factor kappa-B kinase subunit beta (Homo sapiens, UniProt O14920); assay: Inhibition of IKK-beta
T1 sequence (O14920 whole entry): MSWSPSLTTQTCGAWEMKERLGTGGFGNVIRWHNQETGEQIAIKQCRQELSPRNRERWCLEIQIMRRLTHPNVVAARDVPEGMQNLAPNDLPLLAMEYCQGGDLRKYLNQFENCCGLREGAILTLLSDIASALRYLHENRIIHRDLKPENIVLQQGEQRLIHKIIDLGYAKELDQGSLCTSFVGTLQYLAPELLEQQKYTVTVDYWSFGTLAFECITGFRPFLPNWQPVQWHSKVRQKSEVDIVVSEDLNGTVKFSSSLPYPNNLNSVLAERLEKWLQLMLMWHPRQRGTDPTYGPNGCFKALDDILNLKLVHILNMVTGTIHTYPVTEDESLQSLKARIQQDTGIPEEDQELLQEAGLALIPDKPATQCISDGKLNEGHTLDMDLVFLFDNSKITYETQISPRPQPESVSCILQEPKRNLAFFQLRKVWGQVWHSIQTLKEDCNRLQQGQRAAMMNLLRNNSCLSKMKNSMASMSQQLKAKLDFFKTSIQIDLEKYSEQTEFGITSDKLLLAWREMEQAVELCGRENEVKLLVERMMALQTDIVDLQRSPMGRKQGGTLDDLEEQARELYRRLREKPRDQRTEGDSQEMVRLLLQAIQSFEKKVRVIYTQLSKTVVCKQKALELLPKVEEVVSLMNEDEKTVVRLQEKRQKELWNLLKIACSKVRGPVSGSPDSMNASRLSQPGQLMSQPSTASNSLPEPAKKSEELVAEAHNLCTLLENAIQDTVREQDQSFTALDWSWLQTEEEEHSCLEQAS

Aurora kinase A = target: T2, Aurora kinase A (Homo sapiens, UniProt O14965); assay: Inhibition of Aurora A
T2 sequence (O14965 whole entry): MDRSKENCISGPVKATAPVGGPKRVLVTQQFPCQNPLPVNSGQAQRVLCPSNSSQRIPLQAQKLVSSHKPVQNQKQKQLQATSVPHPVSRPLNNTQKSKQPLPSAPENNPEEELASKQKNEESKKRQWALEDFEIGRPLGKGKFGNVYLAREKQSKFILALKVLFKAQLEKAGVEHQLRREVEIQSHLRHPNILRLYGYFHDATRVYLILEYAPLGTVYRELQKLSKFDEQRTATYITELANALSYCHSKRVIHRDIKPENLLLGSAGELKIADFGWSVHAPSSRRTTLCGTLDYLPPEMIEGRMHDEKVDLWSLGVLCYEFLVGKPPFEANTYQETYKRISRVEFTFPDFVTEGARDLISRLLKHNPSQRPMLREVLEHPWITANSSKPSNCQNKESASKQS

[13] = AUC (0 to 24 hrs) in Sprague-Dawley rat at 30 mg/kg, po; assay type: ADME, organism-based; design: time < 24 hr, dose 30 mg/kg, route oral; conditions: plasma
[14] = target: T3, Serine/threonine-protein kinase Nek2 (Homo sapiens, UniProt P51955); assay: Inhibition of NEK2
T3 sequence (P51955 whole entry): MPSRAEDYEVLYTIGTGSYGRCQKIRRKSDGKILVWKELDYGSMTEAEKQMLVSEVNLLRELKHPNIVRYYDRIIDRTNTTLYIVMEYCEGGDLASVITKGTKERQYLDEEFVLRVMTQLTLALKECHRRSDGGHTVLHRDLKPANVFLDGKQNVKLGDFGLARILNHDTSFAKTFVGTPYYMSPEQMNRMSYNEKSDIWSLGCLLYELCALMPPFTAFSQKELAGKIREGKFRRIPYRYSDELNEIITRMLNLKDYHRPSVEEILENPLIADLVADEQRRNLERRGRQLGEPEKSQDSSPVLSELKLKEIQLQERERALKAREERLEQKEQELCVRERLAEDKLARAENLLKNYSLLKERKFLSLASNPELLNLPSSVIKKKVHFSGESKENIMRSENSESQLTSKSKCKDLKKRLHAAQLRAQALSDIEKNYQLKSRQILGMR

[15] = Plasma clearance in rat; assay type: ADME, organism-based
[16] = AUC (0 to 24 hrs) in CD1 mouse at 50 mg/kg, po; assay type: ADME, organism-based; design: time < 24 hr, dose 50 mg/kg, route oral; conditions: plasma
[17] = Clearance in CD1 mouse at 3 mg/kg, iv; assay type: ADME, organism-based; design: dose 3 mg/kg, route intravenous; conditions: in vivo
Aurora kinase B = Aurora kinase B (Homo sapiens, UniProt Q96GD4); assay: Inhibition of Aurora B in human HCT116 cells assessed as inhibition of histone H3 phosphorylation by immunofluorescence assay; assay type: cell-based, HCT-116
[18] = AUC (0 to 6 hrs) in rat at 10 mg/kg, po; assay type: ADME, organism-based; design: time < 6 hr, dose 10 mg/kg, route oral; conditions: plasma
[19] = target: T4, Testis-specific serine/threonine-protein kinase 2 (Homo sapiens, UniProt Q96PF2); assay: Inhibition of TSSK2
T4 sequence (Q96PF2 whole entry): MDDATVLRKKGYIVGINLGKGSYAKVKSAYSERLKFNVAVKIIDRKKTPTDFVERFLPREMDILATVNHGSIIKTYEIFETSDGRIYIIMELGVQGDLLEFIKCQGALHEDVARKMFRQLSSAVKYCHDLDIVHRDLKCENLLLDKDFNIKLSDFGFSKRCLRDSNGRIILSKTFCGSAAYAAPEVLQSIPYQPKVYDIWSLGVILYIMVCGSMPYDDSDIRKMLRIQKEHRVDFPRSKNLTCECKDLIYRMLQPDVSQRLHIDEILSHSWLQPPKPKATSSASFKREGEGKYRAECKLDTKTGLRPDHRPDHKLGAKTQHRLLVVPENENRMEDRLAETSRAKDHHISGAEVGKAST

[20] = Oral bioavailability in Sprague-Dawley rat at 30 mg/kg; assay type: ADME, organism-based; conditions: in vivo
[21] = target: Interleukin-1 receptor-associated kinase 4 (Homo sapiens, UniProt Q9NWZ3); assay: Inhibition of IRAK4
[22] = target: Serine/threonine-protein kinase PLK3 (Homo sapiens, UniProt Q9H4B4); assay: Inhibition of PLK3
[23] = target: Serine/threonine-protein kinase Chk1 (Homo sapiens, UniProt O14757); assay: Inhibition of CHK1

| Compound | clearance [1] [L/h/kg] | AUC(0-t) at 24 h [2] [µM·h] | AUC(0-t) at 24 h [3] [µM·h] | IC50 [4] [µM] | IC50 [5] [µM] | IC50 [6] [µM] | IC50 [7] [µM] | bioavailability [8] [%] | IC50 [9] [µM] | bioavailability [10] [%] | AUC(0-t) at 24 h [11] [µM·h] | IC50 [12] [µM] | IC50 (Aurora kinase A) [µM] | AUC(0-t) at 24 h [13] [µM·h] | IC50 [14] [µM] | clearance [15] [L/h/kg] | AUC(0-t) at 24 h [16] [µM·h] | IC50 (Aurora kinase B) [µM] | IC50 [19] [µM] | IC50 [22] [µM] | further results |
| --- | --- | --- | --- | --- | --- | --- | --- | --- | --- | --- | --- | --- | --- | --- | --- | --- | --- | --- | --- | --- | --- |
| Cc1cn2c(-c3cn[nH]c3)cnc2c(Nc2cc(CN3CCC(F)(F)C3)ns2)n1.Cl | 1.98 | 12.2 | 0.9 | > 0.1 | > 0.1 | > 0.1 | > 0.1 | 60 | > 0.1 | 2 | 1.7 | > 0.1 | ≤ 0.004 | 6.9 | > 0.1 | 1.98 | 9.4 | 0.091 | > 0.1 | > 0.1 | clearance [17]: 7.62 L/h/kg; AUC(0-t) at 6 h [18]: 1.61 µM·h; bioavailability [20]: 19%; IC50 [21]: 1 µM; IC50 [23]: 0.64 µM |
| CCN(Cc1cc(Nc2nc(C)cn3c(-c4cn[nH]c4)cnc23)sn1)C(C)(C)CO |  |  |  | > 0.1 | > 0.1 | > 0.1 | > 0.1 |  | > 0.1 |  |  | > 0.1 | ≤ 0.004 |  | > 0.1 |  |  | 0.025 | > 0.1 | > 0.1 |  |
| Cl.[2H]C([2H])(c1cc(Nc2nc(C)cn3c(-c4cn[nH]c4)cnc23)sn1)N1CCC(F)(F)C1 | 0.378 | 63.3 | 5.9 | > 0.1 | > 0.1 | > 0.1 | > 0.1 | 37 | > 0.1 | 2 | 5.1 | > 0.1 | ≤ 0.004 | 62.1 | > 0.1 | 0.378 | 35.9 | 0.063 | > 0.1 | > 0.1 | clearance [17]: 1.22 L/h/kg; AUC(0-t) at 6 h [18]: 4.73 µM·h; bioavailability [20]: 33%; IC50 [21]: 0.64 µM; IC50 [23]: 0.2 µM |
